Assay [1] has as its target T1, 5-hydroxytryptamine receptor 2C (Homo sapiens, UniProt P28335).
T1 sequence (P28335 whole entry): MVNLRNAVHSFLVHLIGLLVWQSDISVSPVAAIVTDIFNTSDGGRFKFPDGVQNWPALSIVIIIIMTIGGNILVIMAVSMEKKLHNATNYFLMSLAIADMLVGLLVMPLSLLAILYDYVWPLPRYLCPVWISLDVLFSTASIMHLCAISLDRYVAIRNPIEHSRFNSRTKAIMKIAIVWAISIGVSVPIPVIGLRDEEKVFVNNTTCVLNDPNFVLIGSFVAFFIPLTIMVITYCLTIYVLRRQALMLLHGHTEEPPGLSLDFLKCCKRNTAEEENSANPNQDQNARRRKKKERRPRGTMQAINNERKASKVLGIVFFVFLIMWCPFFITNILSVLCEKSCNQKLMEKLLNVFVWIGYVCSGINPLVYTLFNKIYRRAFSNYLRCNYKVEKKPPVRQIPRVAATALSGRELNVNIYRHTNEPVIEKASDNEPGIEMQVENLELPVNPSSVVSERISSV
Put plainly: Displacement of [3H]-mesulergine from 5HT2C receptor expressed in CHO cell membranes after 90 mins by scintillation counting. (Displacement assays read how much labelled ligand stays bound in the presence of the test substance.)

Assay [2] addresses T1, 5-hydroxytryptamine receptor 2C. Put plainly: Agonist activity at 5HT2C receptor expressed in CHO cells by fluorescence based calcium mobilization assay. The class given is functional, cell-based. For orientation: A change in cytosolic calcium serves as a functional read-out for many receptors and channels.
Assay [3] concerns the target T2, 5-hydroxytryptamine receptor 2C (Homo sapiens) (UniProt P28335).
T2 sequence (whole entry): T1 sequence (P28335 whole entry)
Nature of the assay: Displacement of [3H]-mesulergine from 5HT2C receptor expressed in CHO cell membranes at 10 uM after 90 mins by scintillation counting.

Assay [4] deals with T2, 5-hydroxytryptamine receptor 2C (Homo sapiens). Nature of the assay: Displacement of [3H]-mesulergine from 5HT2C receptor expressed in CHO cell membranes at 1 uM after 90 mins by scintillation counting.
The target of assay [5] is T1, 5-hydroxytryptamine receptor 2C. Put plainly: Displacement of [3H]-mesulergine from 5HT2C receptor expressed in CHO cell membranes using 11 concentration of ligand after 90 mins by scintillation counting using complete competition binding curves analysis.

Bounds are passed on as bounds.

Consider `Cl.Oc1cccc(C2CCNCC2)c1`, for which, in assay [1], the Ki was over 10000 nM. The concentration for a half-maximal effect (EC50) result in assay [2] (cho) is “Not Active”.
In the case of `Clc1cccc(C2=CCNCC2)c1`, the inhibition in assay [3] amounted to 95%; in assay [4], 65%. For the same compound, the Ki in assay [1] is 280 nM; in assay [5], 318 nM. In addition, in assay [2] (read-out: EC50), the EC50 was found to be 72.3 nM.
As for `Cc1ccc(C2CCNCC2)cc1.Cl`, the inhibition came out at 33% in assay [3] and 9% in assay [4]. Besides, the Ki in assay [1] is over 10000 nM. Besides, the EC50 result in assay [2] (cho) was “Not Active”.
`c1ccc2c(C3CCNCC3)c[nH]c2c1`: the inhibition amounted to 92% in assay [3] and 60% in assay [4]. In addition, the results for the Ki in assay [1] and in assay [5] were 366 nM and 612 nM, respectively. Further, in assay [2] (read-out: EC50), the EC50 worked out at 128 nM.
Consider `COc1ccc(C2CCNCC2)cc1.Cl`, for which the inhibition in assay [3] was 9%; in assay [4] it was 3%. Further, in assay [1], the Ki is over 10000 nM. For the same compound, in assay [2] (cho), the EC50 result is “Not Active”.
With `Cl.FC(F)(F)c1ccc(C2CCNCC2)cc1`, the Ki in assay [1] came out at 8320 nM. Moreover, the EC50 entry in assay [2] (cho) is “Not Active”.
On the same counts, the results for `COc1cccc(C2CCNCC2)c1.Cl` are 6190 nM and “Not Active”.
Regarding `Cl.Clc1ccccc1C1CCNCC1`, in assay [2] (cho), the EC50 result is given as “Not Active”.
For `C1=C(c2ccccc2)CCNC1`, the inhibition was found to be 42% in assay [3] and 9% in assay [4]. The compound also yielded a Ki in assay [1] of 7180 nM. Further, the EC50 in assay [2] (read-out: EC50) stood at 2450 nM.
`Cc1ccccc1C1CCNCC1.Cl`: the figures for the inhibition in assay [3] and in assay [4] were 65% and 10%, respectively. This compound had a Ki in assay [1] of 3170 nM. In addition, in assay [2] (cho), the EC50 entry is “Not Active”.
On to `CN(C)c1ccc(C2CCNCC2)cc1.Cl`, for which, in assay [1], the Ki is over 10000 nM. Besides, the EC50 entry in assay [2] (cho) is on record as “Not Active”.
For `Cc1cccc(C2CCNCC2)c1C.Cl`, in that order: 1160 nM and “Not Active”.
Turning to `Clc1ccccc1C1=CCNCC1.O=C(O)C(F)(F)F`, in assay [2] (cho), the EC50 entry is “Not Active”.
In the case of `COc1ccccc1C1CCNCC1.Cl`, the figures for the inhibition in assay [3] and in assay [4] were 74% and 23%, respectively. The compound further showed a Ki in assay [1] of 1800 nM. In addition, the EC50 result in assay [2] (cho) is given as “Not Active”.
On the same counts, the results for `Cl.c1ccc(C2CCNCC2)cc1` are 16%, 6%, over 10000 nM and “Not Active”.
As for `FC(F)(F)c1cccc(C2=CCNCC2)c1`, the inhibition in assay [3] came out at 93%; in assay [4], 65%. Moreover, the values for the Ki in assay [1] and in assay [5] were 298 nM and 365 nM, respectively. In addition, in assay [2] (read-out: EC50), the EC50 is 158 nM.
As for `Brc1ccc(C2=CCNCC2)cc1`, the inhibition in assay [3] amounted to 65%; in assay [4], 22%. The Ki in assay [1] was determined as 2540 nM. Also, the concentration for a half-maximal effect (EC50) in assay [2] (read-out: EC50) was determined as 3520 nM.
For the compound `Clc1ccc(C2=CCNCC2)cc1`, the results for the inhibition in assay [3] and in assay [4] were 62% and 17%, respectively. The same compound showed a Ki in assay [1] of 3100 nM. Besides, the EC50 in assay [2] (read-out: EC50) was determined as 1760 nM.
As for `Cl.Fc1ccc(C2CCNCC2)cc1`, in assay [1], the Ki is over 10000 nM. Besides, in assay [2] (cho), the 50% effective concentration (EC50) entry is reported as “Not Active”.
In the case of `Cc1cccc(C2CCNCC2)c1`, the inhibition in assay [3] came out at 63%; in assay [4] it was 15%. Also, the Ki in assay [1] was 3130 nM. In assay [2] (read-out: EC50), the EC50 came to 2000 nM.
With `Cl.Clc1ccc(C2CCNCC2)cc1`, the Ki in assay [1] is over 10000 nM. Moreover, the EC50 entry in assay [2] (cho) is “Not Active”.
Regarding `O=C(O)C(F)(F)F.c1ccc2c(C3CCNCC3)cccc2c1`, the Ki in assay [1] is 60 nM; in assay [5] it was 72 nM. In addition, in assay [2] (cho), the EC50 entry is recorded as “Not Active”.
With `FC(F)(F)c1cccc(C2CCNCC2)c1`, the results for the inhibition in assay [3] and in assay [4] were 77% and 26%, respectively. Moreover, the Ki in assay [1] was found to be 1550 nM. In addition, the EC50 in assay [2] (read-out: EC50) came to 1260 nM.
On to `Clc1cccc(C2CCNCC2)c1`, for which the inhibition in assay [3] came out at 83%; in assay [4], 37%. For the same compound, the inhibitory constant (Ki) was 931 nM in assay [1] and 1430 nM in assay [5]. Besides, in assay [2] (read-out: EC50), the EC50 was found to be 790 nM.
`Cl.FC(F)(F)c1ccccc1C1CCNCC1` yielded a Ki in assay [1] of 826 nM. In assay [2] (cho), the EC50 result is on record as “Not Active”.
Take `C1=C(c2c[nH]c3ccccc23)CCNC1`: the inhibition was determined as 95% in assay [3] and 64% in assay [4]. Besides, the Ki in assay [1] was 296 nM; in assay [5] it was 632 nM. The EC50 in assay [2] (read-out: EC50) was 163 nM.
In the case of `O=C(O)C(F)(F)F.c1cc2c(c(C3CCNCC3)c1)CCCC2`, the Ki in assay [1] was found to be 55 nM; in assay [5], 43 nM. Besides, the half-maximal effective concentration (EC50) result in assay [2] (cho) is recorded as “Not Active”.

As usually defined, the Ki is the dissociation constant of the complex between target and ligand, obtained from inhibition or displacement. Lower therefore signals higher affinity. The term EC50 denotes the midpoint of the concentration-response curve. What is called inhibition is how much of the control response was suppressed.

The values above are taken from ChEMBL document CHEMBL2010681, “Synthesis and SAR study of 4-arylpiperidines and 4-aryl-1,2,3,6-tetrahydropyridines as 5-HT₂C agonists” (Bioorg Med Chem Lett, 2012).
